Patent publication US11034751B1, “Methods and compositions for treating cancer using serotonin receptor inhibitors” (Flagship Pioneering Innovations V, Inc., priority 2018, dated 2021)

Tested on: macrophages
Experiment: IL8 secretion by macrophages incubated with serotonin receptor agonists (bead-based immunoassay)
Type: cell-based
Conditions: human monocyte-derived macrophages (M-CSF)
Experimental: CD14+ monocytes were isolated from human PBMCs using negative magnetic bead selection (Stemcell Technologies) on day 0. Cells were cultured with M-CSF to differentiate monocytes to macrophages. On day 6, cells were treated with LP44 (high affinity 5-HT7 agonist), BW 723C86 hydrochloride (5-HT2B agonist), MK 212 hydrochloride (5-HT2C agonist) (Sigma-Aldrich), at concentrations 1 μM and 10 μM overnight. Supernatant was collected and bead-based immunoassays (Biolegend) were performed to detect changes in cytokine secretion.
Across multiple human donors, secretion of the inflammatory cytokine, IL8, by macrophages was decreased after addition of each of the HTR2B, HTR2C, and HTR7 agonists, as show in Table 18 below.

Row | Structure (SMILES) | Fold change of IL-8 (Normalized to Macs + LPS with no compound treatment) (1 μM overnight) | Fold change of IL-8 (Normalized to Macs + LPS with no compound treatment) (10 μM overnight)
1 | CC(N)Cc1c[nH]c2ccc(OCc3cccs3)cc12.Cl (stereo not drawn) [BW723086] | 0.670 | 0.508
2 | CSc1ccccc1N1CCN(CCCCCC(=O)NC2CCCc3ccccc32)CC1 (stereo not drawn) [LP44] | 0.340 | 0.427
3 | Clc1cncc(N2CCNCC2)n1 [MK212] | 0.502 | 0.484
